Reference: the supplement of paper PMC10883282

Tests used:
Assay in all cases: relative viability vs DMSO control (72 h) (fraction); higher = more viable cells
[1] = system: G401
In short: (§1)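 Sarcoma cell lines were seeded in 384-well plates at densities chosen for 80–90% confluence, then 24 h later given 2.5 µl of serially diluted compound drawn from source plates spanning 10 mM to 0.0002 mM. They were held 72 h at 37 °C, 5% CO2, with 0.1% DMSO vehicle and a 5 µM positive control included. Relative viability was read with ATPLite as percent growth and averaged over up to triplicate wells. Rescaling placed full at 1 and none at 0.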

[2] = system: A204
In short: as §1

[3] = system: SYO-1
In short: as §1

[4] = system: SW872
In short: as §1

[5] = system: KHOS-NP
In short: as §1

[6] = system: MES-SA
In short: as §1

[7] = system: HT1080
In short: as §1

[8] = system: SK-LMS-1
In short: as §1

[9] = system: HS729
In short: as §1

[10] = system: SW684
In short: as §1

[11] = system: SW1353
In short: as §1

[12] = system: VA-ES-BJ
In short: as §1

CC(=O)c1c(C)c2cnc(Nc3ccc(N4CCNCC4)cn3)nc2n(C2CCCC2)c1=O [Palbociclib]
Settings	relative viability
[1], 0.00017 µM	1.04
[1], 0.00051 µM	1.03
[1], 0.00152 µM	1.016
[1], 0.00457 µM	0.989
[1], 0.01372 µM	0.962
[1], 0.04115 µM	0.938
[1], 0.1235 µM	0.882
[1], 0.3704 µM	0.856
[1], 1.111 µM	0.833
[1], 3.333 µM	0.742
[1], 10 µM	0.293
[2], 0.00017 µM	1.05
[2], 0.00051 µM	1.07
[2], 0.00152 µM	1.07
[2], 0.00457 µM	1.08
[2], 0.01372 µM	1.03
[2], 0.04115 µM	0.987
[2], 0.1235 µM	0.808
[2], 0.3704 µM	0.777
[2], 1.111 µM	0.649
[2], 3.333 µM	0.556
[2], 10 µM	0.39
[3], 0.00017 µM	1.01
[3], 0.00051 µM	1
[3], 0.00152 µM	1.01
[3], 0.00457 µM	0.9555
[3], 0.01372 µM	0.903
[3], 0.04115 µM	0.8
[3], 0.1235 µM	0.702
[3], 0.3704 µM	0.649
[3], 1.111 µM	0.621
[3], 3.333 µM	0.523
[3], 10 µM	-0.000667
[4], 0.00017 µM	1.11
[4], 0.00051 µM	1.1
[4], 0.00152 µM	1.07
[4], 0.00457 µM	1.09
[4], 0.01372 µM	1.07
[4], 0.04115 µM	1.03
[4], 0.1235 µM	0.968
[4], 0.3704 µM	0.884
[4], 1.111 µM	0.83
[4], 3.333 µM	0.78
[4], 10 µM	0.726
[5], 0.00017 µM	1.12
[5], 0.00051 µM	1.11
[5], 0.00152 µM	1.124
[5], 0.00457 µM	1.1
[5], 0.01372 µM	1.13
[5], 0.04115 µM	1.12
[5], 0.1235 µM	1.11
[5], 0.3704 µM	1.1
[5], 1.111 µM	1.07
[5], 3.333 µM	0.902
[5], 10 µM	0.742
[6], 0.00017 µM	0.965
[6], 0.00051 µM	0.977
[6], 0.00152 µM	0.975
[6], 0.00457 µM	0.936
[6], 0.01372 µM	0.9398
[6], 0.04115 µM	0.852
[6], 0.1235 µM	0.782
[6], 0.3704 µM	0.678
[6], 1.111 µM	0.641
[6], 3.333 µM	0.521
[6], 10 µM	0.366
[7], 0.00017 µM	1.09
[7], 0.00051 µM	1.1
[7], 0.00152 µM	1.11
[7], 0.00457 µM	1.08
[7], 0.01372 µM	1.13
[7], 0.04115 µM	1.12
[7], 0.1235 µM	1.16
[7], 0.3704 µM	1.16
[7], 1.111 µM	1.06
[7], 3.333 µM	0.973
[7], 10 µM	0.44
[8], 0.00017 µM	1.05
[8], 0.00051 µM	1.04
[8], 0.00152 µM	1.08
[8], 0.00457 µM	1.05
[8], 0.01372 µM	1.06
[8], 0.04115 µM	0.97
[8], 0.1235 µM	0.998
[8], 0.3704 µM	0.961
[8], 1.111 µM	1
[8], 3.333 µM	1.06
[8], 10 µM	0.798
[9], 0.00017 µM	1.05
[9], 0.00051 µM	1.02
[9], 0.00152 µM	1.06
[9], 0.00457 µM	1.01
[9], 0.01372 µM	1.05
[9], 0.04115 µM	0.965
[9], 0.1235 µM	0.987
[9], 0.3704 µM	0.984
[9], 1.111 µM	0.844
[9], 3.333 µM	0.849
[9], 10 µM	0.933
[10], 0.00017 µM	1.19
[10], 0.00051 µM	1.2
[10], 0.00152 µM	1.24
[10], 0.00457 µM	1.241
[10], 0.01372 µM	1.28
[10], 0.04115 µM	1.21
[10], 0.1235 µM	1.18
[10], 0.3704 µM	1.11
[10], 1.111 µM	1.05
[10], 3.333 µM	0.933
[10], 10 µM	0.7226
[11], 0.00017 µM	1.05
[11], 0.00051 µM	1.06
[11], 0.00152 µM	1.05
[11], 0.00457 µM	1.04
[11], 0.01372 µM	1.01
[11], 0.04115 µM	0.955
[11], 0.1235 µM	0.9442
[11], 0.3704 µM	0.9
[11], 1.111 µM	0.859
[11], 3.333 µM	0.87
[11], 10 µM	0.425
[12], 0.00017 µM	1.1
[12], 0.00051 µM	1.1
[12], 0.00152 µM	1.081
[12], 0.00457 µM	1.08
[12], 0.01372 µM	0.99
[12], 0.04115 µM	0.9367
[12], 0.1235 µM	0.807
[12], 0.3704 µM	0.666
[12], 1.111 µM	0.584
[12], 3.333 µM	0.547
[12], 10 µM	0.499
